pIC50: −log10 of the molar value.
target: Adenylate cyclase type 5 (Homo sapiens, UniProt O95622); assay: Inhibition of recombinant human adenylate cyclase 5 expressed in HEK293 cells; format: cell-based
Sequence (O95622 whole entry): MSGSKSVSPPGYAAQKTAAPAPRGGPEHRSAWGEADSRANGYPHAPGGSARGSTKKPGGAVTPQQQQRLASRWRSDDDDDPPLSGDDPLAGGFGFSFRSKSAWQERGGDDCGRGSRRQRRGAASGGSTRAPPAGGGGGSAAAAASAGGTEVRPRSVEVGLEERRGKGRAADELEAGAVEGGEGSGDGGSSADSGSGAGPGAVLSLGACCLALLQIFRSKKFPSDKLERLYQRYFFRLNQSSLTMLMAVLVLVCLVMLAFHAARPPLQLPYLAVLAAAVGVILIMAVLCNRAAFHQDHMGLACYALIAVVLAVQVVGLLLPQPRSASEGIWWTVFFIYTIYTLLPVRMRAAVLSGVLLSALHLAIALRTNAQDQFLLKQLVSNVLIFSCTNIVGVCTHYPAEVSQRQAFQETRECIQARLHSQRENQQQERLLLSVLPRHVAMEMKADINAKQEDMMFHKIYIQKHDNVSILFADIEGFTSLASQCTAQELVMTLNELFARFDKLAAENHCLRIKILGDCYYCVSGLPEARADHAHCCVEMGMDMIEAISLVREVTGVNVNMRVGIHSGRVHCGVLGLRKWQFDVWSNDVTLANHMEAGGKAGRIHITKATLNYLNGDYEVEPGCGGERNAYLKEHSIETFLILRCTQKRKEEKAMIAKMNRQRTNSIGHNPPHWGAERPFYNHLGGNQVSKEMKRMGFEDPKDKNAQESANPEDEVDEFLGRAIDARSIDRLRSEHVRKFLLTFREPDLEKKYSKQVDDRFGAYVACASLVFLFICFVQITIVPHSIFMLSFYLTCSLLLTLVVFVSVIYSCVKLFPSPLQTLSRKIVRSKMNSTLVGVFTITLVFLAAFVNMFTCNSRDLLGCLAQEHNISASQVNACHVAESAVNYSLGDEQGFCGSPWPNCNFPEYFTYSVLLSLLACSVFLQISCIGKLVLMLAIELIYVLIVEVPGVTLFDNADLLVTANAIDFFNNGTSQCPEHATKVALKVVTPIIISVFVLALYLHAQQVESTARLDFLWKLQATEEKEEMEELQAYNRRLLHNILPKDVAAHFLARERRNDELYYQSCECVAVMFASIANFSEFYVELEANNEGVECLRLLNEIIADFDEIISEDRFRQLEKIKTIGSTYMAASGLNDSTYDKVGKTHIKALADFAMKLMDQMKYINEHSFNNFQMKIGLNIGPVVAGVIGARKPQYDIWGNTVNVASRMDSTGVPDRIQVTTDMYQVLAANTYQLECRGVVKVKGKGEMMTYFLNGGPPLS

pIC50 | Structure (SMILES)
< 3.70 | CC(=O)N(CCn1cnc2c(N)ncnc21)CC(=O)NO
4.82 | CN(CCn1cnc2c(N)ncnc21)CC(=O)NO
5.12 | Nc1ncnc2c1ncn2CCCCC(=O)NO
< 3.70 | Nc1ncnc2c1ncn2CCCCCCC(=O)O
< 3.70 | Nc1ncnc2c1ncn2CCNCC(=O)NO
< 3.70 | CC(=O)N(CCn1cnc2c(N)ncnc21)CC(=O)O
< 3.70 | COC(=O)CNCCn1cnc2c(N)ncnc21
< 3.70 | COC(=O)CN(CCn1cnc2c(N)ncnc21)C(=O)OC(C)(C)C
3.85 | Nc1ncnc2c1ncn2CCCOCC(=O)O
< 3.70 | Nc1ncnc2c1ncn2CCCCC(=O)O
< 3.70 | CC(C)(C)OC(=O)N(CCCn1cnc2c(N)ncnc21)CC(=O)NO
< 3.70 | COC(=O)CNCCCn1cnc2c(N)ncnc21
< 3.70 | COC(=O)CN(C)CCn1cnc2c(N)ncnc21
< 3.70 | Nc1ncnc2c1ncn2CCCCCC(=O)O
< 3.70 | Nc1ncnc2c1ncn2CCCNCC(=O)O
4.03 | Nc1ncnc2c1ncn2CCCOCC(=O)NO
< 3.70 | COC(=O)CCCCn1cnc2c(N)ncnc21
4.45 | Nc1ncnc2c1ncn2CCCCCC(=O)NO
< 3.70 | CC(C)(C)OC(=O)N(CCn1cnc2c(N)ncnc21)CC(=O)O
< 3.70 | Nc1ncnc2c1ncn2CCCCCCC(=O)NO
< 3.70 | Nc1ncnc2c1ncn2CCNCC(=O)O
< 3.70 | CCOC(=O)CCCCCCn1cnc2c(N)ncnc21
< 3.70 | CC(C)(C)OC(=O)N(CCCn1cnc2c(N)ncnc21)CC(=O)O
< 3.70 | Nc1ncnc2c1ncn2CCC(=O)NO
< 3.70 | COC(=O)CN(CCn1cnc2c(N)ncnc21)C(C)=O
< 3.70 | Nc1ncnc2c1ncn2CCCNCC(=O)NO
< 3.70 | CC(C)(C)OC(=O)N(CCn1cnc2c(N)ncnc21)CC(=O)NO
5.10 | Nc1ncnc2c1ncn2CCCC(=O)NO
< 3.70 | CCOC(=O)COCCCn1cnc2c(N)ncnc21
< 3.70 | CCOC(=O)CCCCCn1cnc2c(N)ncnc21

Source: ChEMBL document CHEMBL1135849, “Hydroxamate based inhibitors of adenylyl cyclase. Part 1: the effect of acyclic linkers on P-site binding” (Bioorg Med Chem Lett, 2002)
